# Where two headings read alike, the source gives them in different places.
# Legend:
# [1] = Qualitative solubility of FT1518 in aqueous media containing counterions; format: physicochemical
# From the text: Solubility of FT-1518 was checked in various counter ion solutions before performing salt screening to obtain an estimate of feasibility of salt formation in the respective counter ions.
# [2] = pH vs solubility study (RP-HPLC); format: physicochemical
# Procedure: In 2 mL volume of buffers (ranging from pH 1.2 to 7.4) and purified water, compound (either free base or esylate or oxalate) was added with increments until the compound doesn't dissolve further in the medium and compound remains undissolved or excess in the solution. The samples were kept for overnight at ambient room temperature to saturate/equilibrate. The dispersions were filtered through 0.45 μm PVDF or nylon membrane filters and the filtrates were analysed using RP-HPLC for determination of solubility of compounds in various buffers and purified water.
# [3] = Intravenous and per oral pharmacokinetics in male Sprague Dawley rats; format: in vivo, Sprague Dawley (SD) rats; conditions: for Bioavailability (% F): PO dose (10 mg/kg) vs IV 5 mg/kg
# Procedure: The husbandry conditions were maintained as described in animal facility SOPs during the study period. Animals procured were quarantined for 7 days followed by acclimatization for 5 days. The study was carried out for two days. Male Balb/c mice of age 10-12 weeks (18-25 g) and male Sprague Dawley rats 8-10 weeks (220-280 g) were used. The food was with held for a period of 4-12 hr prior to dosing and returned to all animals 4h post dosing and water supplied ad libitum. The doses of FT1518 were as follows: Mice: 10 mg/kg intravenous (i.v) and 50 mg/kg oral (p.o); rat—5 mg/kg intravenous (i.v) and 10 mg/kg oral (p.o). The formulation used in i.v and p.o studies were 10% dimethylsulfoxide (DMSO)+30% polyethyleneglycol 400 (PEG400)+60% water and 0.5% methylcellulose (MC)+0.1% tween 80. Blood was collected at the predetermined time points in mice (cardiac puncture) and Jugular vein (rats) over a period of 24h in eppendorf tubes containing K2EDTA as anticoagulant. The plasma was isolated from the blood and stored at −80° C. until bioanalysis.
# Intravenous and Per Oral Pharmacokinetic Profile of FT1518 (Base); FT1518-Esylate Salt and FT1518-Oxalate Salt in Male Sprague Dawley (SD) Rats Species: SD rats Gender: Male Dose: IV (5 mg/kg), Single dose • PO (10 mg/kg), single dose Formulation: • IV—DMSO: PEG400:Water (10:30:60 v/v) • PO— 0.5% methylcellulose and 0.1% Tween 80 in water Sampling Time Points: • IV: 5 min, 15 min, 30 min, 1 h, 2, 4, 8 and 24 h post dose • PO: 10 min, 15 min, 30 min, 1 h, 2, 4, 8 and 24 h post dose. PK analysis: Phoenix software (Pharsight product). Noncompartmental Analysis (NCA) was used to estimate the PK parameters
# [4] = Microsomal stability, MLM; format: in vitro ADME; conditions: 3 μM (n = 3), mice liver microsomes
# Procedure: (§1) All in vitro experiments like protein binding, microsomal stability, cell cytotoxicity were performed as per study protocols of respective experiments.
# [5] = Microsomal stability, RLM; format: in vitro ADME; conditions: rat liver microsomes
# Procedure: as §1
# Caco-2 [6] = test system: Caco-2
# [7] = Solid state stability of physical forms at 40° C./75% RH by pXRD; format: physicochemical; conditions: 40° C./75% RH open, 7 days
# Procedure: Physical forms crystallized from various methods of crystallization were exposed to 40° C./75% RH for 7 days in open condition to understand the physical stability of the new physical forms in the presence of heat and humidity and also to know if there is any form conversion in the stable forms of Esylate and oxalate salts of FT-1518.
# [8] = Plasma protein binding, mouse; format: in vitro ADME; conditions: mouse, plasma, 10 μM (n = 4); read-out: % Bound, Mouse plasma (converted)
# Procedure: as §1
# [9] = Plasma protein binding, human; format: in vitro ADME; conditions: human, plasma, 10 μM (n = 4); read-out: % Bound, Human Plasma (converted)
# Procedure: as §1
# Hepatic clearance, mouse = format: in vitro ADME
# Hepatic clearance, human = format: in vitro ADME
# Hepatic clearance, rat = format: in vitro ADME
# Hepatic clearance, dog = format: in vitro ADME; conditions: dogs
# Caco-2 permeability = conditions: human, Caco-2
# Caco-2 [10] = test: Caco-2 permeability
# prostate cancer (PC-3) = test: In vitro assay, PC-3; format: cell-based; conditions: prostate cancer (PC-3) line
# Procedure: as §1
# [11] = IV dose (5 mg/kg), single dose, male SD rats
# [12] = PO dose (10 mg/kg), single dose, male SD rats, 10 mg/kg
# [13] = sample from cooling crystallization in ethanol
# [14] = sample from slurry transformation in ethyl acetate
# [15] = sample from solvent evaporation in acetonitrile
# [16] = sample from solvent evaporation in ethanol
structure (smiles),measurement,setting,value
CCC(CC)n1cnc2c(-c3cnc(N)cn3)nc(N3CC4CCC(C3)O4)nc21 [FT-1518 base],Solubility,[1]; 0.04N phthalic acid,<1 mg/mL
same,Solubility,[1]; 0.1N H2SO4,>100 mg/mL
same,Solubility,[1]; 0.1N adipic acid,<1 mg/mL
same,Solubility,"[2]; Water, overnight, ambient room temperature, listed as Free base",0.12 mg/mL
same,Solubility,"[2]; pH 1.2 HCl, listed as Free base",>50.25 mg/mL
same,Solubility,"[2]; pH 3.0 Citrate buffer, listed as Free base",2.11 mg/mL
same,Solubility,"[2]; pH 4.0 Acetate buffer, listed as Free base",0.34 mg/mL
same,Solubility,"[2]; pH 5.0 Acetate buffer, listed as Free base",0.14 mg/mL
same,Solubility,"[2]; pH 6.8 Phosphate buffer, listed as Free base",0.11 mg/mL
same,Solubility,"[2]; pH 7.4 Phosphate buffer, listed as Free base",0.1 mg/mL
same,clearance as % of SD rat liver blood flow,"[3]; IV 5 mg/kg, SD rats",~42%
same,AUC0-∞,[3]; [11],3905 ± 1334 ng·h/mL
same,Cl,[3]; [11],1.4 ± 0.6 L/h/kg
same,Bioavailability (% F),[3]; male SD rats,44%
same,Tmax,"[3]; PO dose (10 mg/kg), single dose, male SD rats",30 min
same,AUC (AU C0^.oo),[3]; [12],3422 ± 684 ng·h/mL
same,Cmax,[3]; [12],1592 ng/mL
same,"Invitro T1/2, MLM",[4],43 min
same,"Invitro T1/2, RLM",[5]; 3 μM (n = 3),>60 min
same,stability in RLM,[5],"✓ FT1518, FT 1518-Esylate and FT1518-Oxalate was highly stable in PHLM and RLM"
same,Apparent permeability (Papp) A to B,Caco-2 [6],215.71 ± 17.67 nm/s
same,Apparent permeability (Papp) B to A,Caco-2 [6],309.40 ± 4.28 nm/s
same,permeability in Caco-2 assay,Caco-2 [6],"✓ FT1518 base, FT1518-Esylate and FT1518-Oxalate showed high permeability in Caco-2 assay. Efflux ratio of <2 indicates compounds that the compounds may not be substrates of P-gp or BCRP efflux transporters"
CCC(CC)n1cnc2c(-c3cnc(N)cn3)nc(N3CC4CCC(C3)O4)nc21 [FT-1518-Esylate],Solubility,"[2]; Water, overnight, ambient room temperature, listed as Esylate salt",>539.39 mg/mL
same,Solubility,"[2]; pH 1.2 HCl, listed as Esylate salt",>587.07 mg/mL
same,Solubility,"[2]; pH 3.0 Citrate buffer, listed as Esylate salt",>76.38 mg/mL
same,Solubility,"[2]; pH 4.0 Acetate buffer, listed as Esylate salt",53.25 mg/mL
same,Solubility,"[2]; pH 5.0 Acetate buffer, listed as Esylate salt",0.84 mg/mL
same,Solubility,"[2]; pH 6.8 Phosphate buffer, listed as Esylate salt",79.08 mg/mL
same,Solubility,"[2]; pH 7.4 Phosphate buffer, listed as Esylate salt",40.8 mg/mL
same,solid state stability (pXRD form),[7]; [13],remained the same
same,solid state stability (pXRD form),[7]; sample from slurry transformation in THF: toluene (1:1),Same as initial salt
same,solid state stability (pXRD form),[7]; sample from slurry transformation in THF,Same as initial salt
same,solid state stability (pXRD form),[7]; [14],40 °C slurry converted
same,solid state stability (pXRD form),[7]; sample from slurry transformation in toluene,Same as initial salt
same,solid state stability (pXRD form),[7]; sample from solvent evaporation in THF:water (9:1),Same as initial salt
same,solid state stability (pXRD form),[7]; [15],Same as initial salt
same,solid state stability (pXRD form),[7]; [16],formed Same as initial salt
same,solid state stability (pXRD form),[7]; sample from solvent evaporation in methanol,Same as initial salt
same,Bioavailability (% F),[3]; male SD rats,> 100%
same,AUC,"[3]; male, Sprague Dawley, rat, plasma, po, 10 mg/kg, PO dose (10 mg/kg), single dose, male SD rats, read-out: AUC (AU C0^.oo)",9680 ng·h/mL
same,Cmax,"[3]; male, Sprague Dawley, rat, plasma, po, 10 mg/kg, PO dose (10 mg/kg), single dose, male SD rats, read-out: Cmax",1770 ng/mL
same,half-life at 3 μM,"[4]; mouse, mouse liver microsomes, read-out: Invitro T1/2, MLM",24 min
same,half-life at 3 μM,"[5]; 3 μM (n = 3), read-out: Invitro T1/2, RLM",> 60 min
same,stability in RLM,[5],"✓ FT1518, FT 1518-Esylate and FT1518-Oxalate was highly stable in PHLM and RLM"
same,fraction unbound at 10 μM,[8],0.0854
same,fraction unbound at 10 μM,[9],0.0298
same,hepatic clearance in terms of liver blood flow,"Hepatic clearance, mouse",high
same,hepatic clearance in terms of liver blood flow,"Hepatic clearance, human",moderate
same,hepatic clearance in terms of liver blood flow,"Hepatic clearance, rat",low
same,hepatic clearance in terms of liver blood flow,"Hepatic clearance, dog",low
same,efflux ratio at 10 μM,Caco-2 permeability,1.8
same,Papp A→B at 10 μM,"Caco-2 permeability; Caco-2, Apparent permeability (Papp) A to B, 10 μM (n = 3)",21.6 ± 0.887 ×10⁻⁶ cm/s
same,Papp B→A at 10 μM,"Caco-2 permeability; Caco-2, Apparent permeability (Papp) B to A, 10 μM (n = 3)",38.3 ± 0.426 ×10⁻⁶ cm/s
same,permeability in Caco-2 assay,Caco-2 [10],"✓ FT1518 base, FT1518-Esylate and FT1518-Oxalate showed high permeability in Caco-2 assay. Efflux ratio of <2 indicates compounds that the compounds may not be substrates of P-gp or BCRP efflux transporters"
CCC(CC)n1cnc2c(-c3cnc(N)cn3)nc(N3CC4CCC(C3)O4)nc21 [FT-1518-Oxalate],Solubility,"[2]; Water, overnight, ambient room temperature, listed as Oxalate salt",11.03 mg/mL
same,Solubility,"[2]; pH 1.2 HCl, listed as Oxalate salt",>52.76 mg/mL
same,Solubility,"[2]; pH 3.0 Citrate buffer, listed as Oxalate salt",20.25 mg/mL
same,Solubility,"[2]; pH 4.0 Acetate buffer, listed as Oxalate salt",1.05 mg/mL
same,Solubility,"[2]; pH 5.0 Acetate buffer, listed as Oxalate salt",0.14 mg/mL
same,Solubility,"[2]; pH 6.8 Phosphate buffer, listed as Oxalate salt",5.28 mg/mL
same,Solubility,"[2]; pH 7.4 Phosphate buffer, listed as Oxalate salt",0.76 mg/mL
same,solid state stability (pXRD form),[7]; [13],Same as initial salt
same,solid state stability (pXRD form),[7]; sample from cooling crystallization in tetrahydrofuran,Same as initial salt
same,solid state stability (pXRD form),[7]; sample from slurry transformation in ethyl acetate: water (9:1),remained same
same,solid state stability (pXRD form),[7]; [14],Same as initial
same,solid state stability (pXRD form),[7]; sample from slurry transformation in hexane,Same as initial
same,solid state stability (pXRD form),[7]; sample from solvent evaporation in acetone,Same as initial salt form
same,solid state stability (pXRD form),[7]; [15],Same as initial salt
same,solid state stability (pXRD form),[7]; [16],Partial conversion of new
same,solid state stability (pXRD form),[7]; sample from solvent evaporation in tetrahydrofuran,Major conversion of new
same,Bioavailability (% F),[3]; male SD rats,68%
same,Cmax,[3]; [12],1980 ng/mL
same,"Invitro T1/2, MLM",[4],46 min
same,"Invitro T1/2, RLM",[5]; 3 μM (n = 3),>60 min
same,stability in RLM,[5],"✓ FT1518, FT 1518-Esylate and FT1518-Oxalate was highly stable in PHLM and RLM"
same,IC50,prostate cancer (PC-3),183 µM
same,hepatic clearance in terms of liver blood flow,"Hepatic clearance, mouse",moderate
same,hepatic clearance in terms of liver blood flow,"Hepatic clearance, human",moderate
same,hepatic clearance in terms of liver blood flow,"Hepatic clearance, rat",moderate
same,hepatic clearance in terms of liver blood flow,"Hepatic clearance, dog",low
same,permeability in Caco-2 assay,Caco-2 [10],"✓ FT1518 base, FT1518-Esylate and FT1518-Oxalate showed high permeability in Caco-2 assay. Efflux ratio of <2 indicates compounds that the compounds may not be substrates of P-gp or BCRP efflux transporters"
same,Apparent permeability (Papp) A to B,"Caco-2 [10]; 10 μM (n = 3), Caco-2",232.07 ± 18.01 nm/s
same,Apparent permeability (Papp) B to A,"Caco-2 [10]; 10 μM (n = 3), Caco-2",292.03 ± 14.82 nm/s
